Measured values taken from patent US20250276973A1, “CRYSTAL OF 7H-PYRROLO[2,3-D]PYRIMIDINE-4-AMINE DERIVATIVE” (TAIHO PHARMACEUTICAL CO., LTD., priority 2022, published 2025).

Tests used:
[1] = Solid stability test (4 weeks of storage at 80° C., closed system; HPLC); format: physicochemical; settings: for Chemical purity after 4 weeks of storage at 80° C. / Solid stability (result in words): 80° C. (closed system), 4 weeks; for Chemical purity after 4 weeks of storage at 80° C.: glass bottle; for Chemical purity after 4 weeks of storage at 80° C. / Chemical purity before storage: HPLC; for Solid stability (result in words): related substances by HPLC; for Change (chemical purity): after 4 weeks at 80° C. versus before storage; for Chemical purity before storage: UV 220
Experimental: The solid stability of the type II crystal of Compound (1) in free form, the type III crystal of Compound (1) in free form, the type VII crystal of Compound (1) in free form, and the type VIII crystal of Compound (1) in free form obtained in the examples, reference example, and comparative example were evaluated after 4 weeks of storage by the following procedure. • Storage conditions: 80° C. (closed system) (HIFLEX (high-temperature storage chamber manufactured by ETAC)) • Storage period: 4 weeks • Storage volume: Approximately 30 mg • Storage container: Glass bottle
Changes in the mass of the related substances (the amounts of detected substances other than Compound (1)) were analyzed by HPLC according to the following method. Approximately 8 mg of each sample was weighed and dissolved in I mL of a chloroform-methanol mixture (1:1 v/v). Fifty μL of this solution was measured and diluted with 950 μL of an acetonitrile-water mixture (7:3), and 5 μL of the resulting solution was accurately measured and used as the sample for the analysis.
The mass of the related substances in the sample solution was determined by HPLC analysis. The instrument, including data processing, was handled in accordance with the method and procedure indicated for each instrument. • Column: InertSustainSwift C18 (2.1×50 mm, 1.9 μm) manufactured by GL Sciences • UV detection: […] • Column temperature: 40° C. • Flow rate: 0.3 mL/min • Sample cooler: 10° C. • Sample concentration: 0.1 mg/mL • Mobile phase A: 10 mmol/L phosphate buffer (pH 6.8)/acetonitrile (95:5) mixture • Mobile phase B: Acetonitrile • The gradients are shown in Table 4.
The solid stability of the type III crystal of Compound (1) with succinic acid, the type I crystal of Compound (1) with citric acid, the type IV crystal of Compound (1) with citric acid, the type I crystal of Compound (1) with sorbic acid, and the type I crystal of Compound (1) with phosphoric acid obtained in the examples, reference example, and comparative examples were evaluated after 4 weeks of storage. The evaluation method, storage, and measurement conditions were as described in Test Example 1.

[2] = Dynamic vapor sorption (DVS) test; format: physicochemical; settings: 25° C.; for Hygroscopicity (result in words): 5 to 95% RH; for Reversibility of water adsorption when the humidity was decreased: decrease from 95% to 5% RH
Experimental: Vapor sorption tests were performed using the type II crystal of Compound (1) in free form, the type III crystal of Compound (1) in free form, the type VII crystal of Compound (1) in free form, and the type VIII crystal of Compound (1) in free form obtained in the examples, reference example, and comparative example.
Vapor sorption tests were conducted under the following conditions.
Approximately 10 mg of the sample was filled into a specialized quartz holder to continuously measure and record the weight of the sample at each humidity was under the following conditions. The instrument, including data processing, was handled in accordance with the method and procedure indicated for each instrument. • Instrument: VTI-SA+(manufactured by TA Instruments) • Drying temperature: 60° C. • Heating rate: 1° C./min • Equilibration of drying: Confirmation of no more than 0.01 wt % decrease in 5 minutes within a period not exceeding 300 minutes • Measurement temperature: 25° C. • Equilibration of humidification: Confirmation of no more than 0.01 wt % increase in 5 minutes within a period not exceeding 120 minutes • Relative humidity program: Increase from 5 to 95% RH in increments of 5% RH, and decrease from 95% to 5% RH in increments of 5% RH. • Changes in the weight over the range of the measurement conditions obtained in these tests are shown in FIGS. 9 through 12.
Vapor sorption tests were performed using the type III crystal of Compound (1) with succinic acid, the type I crystal of Compound (1) with citric acid, the type IV crystal of Compound (1) with citric acid, the type I crystal of Compound (1) with sorbic acid, and the type I crystal of Compound (1) with phosphoric acid obtained in the examples, reference example, and comparative examples.
Vapor sorption tests were conducted under the same conditions as in Test Example 2.

[3] = listed as Type II crystal in free form
[4] = listed as type III crystal of Compound (1) in free form

Compound | Chemical purity after 4 weeks of storage at 80° C. [1] [%] | Change (chemical purity) [1] | Chemical purity before storage [1] [%] | Hygroscopicity (result in words) [2] | Chemical purity after 4 weeks of storage at 80° C. [1, 3] [%] | Change (chemical purity) [1, 3] [%] | Chemical purity before storage [1, 3] [%] | Weight increase under 95% relative humidity ([2]; 95% RH) [%] | Reversibility of water adsorption when the humidity was decreased [2, 4] | Reversibility of water adsorption when the humidity was decreased [2] | Solid stability (result in words) [1] | Solid stability (result in words) [1, 4] | Hygroscopicity (result in words) [2, 4] | Solid stability (result in words) ([1]; listed as type VII crystal of Compound (1) in free form)
C#Cc1c(-c2cnc3ccccc3c2)c2c(N)ncnc2n1C12CCC(NC(=O)c3cnc(C)cn3)(CC1)C2 [Type I crystal of Compound (1) with citric acid] [N-(4-(4-amino-6-ethynyl-5-(quinolin-3-yl)-7H-pyrrolo[2,3-d]pyrimidin-7-yl)bicyclo[2.2.1]heptan-1-yl)-5-methylpyrazine-2-carboxamide] | 99.03 | −0.72% | 99.75 | highly hygroscopic |  |  |  |  |  |  | unstable crystals with decreases in purity |  |  | 
C#Cc1c(-c2cnc3ccccc3c2)c2c(N)ncnc2n1C12CCC(NC(=O)c3cnc(C)cn3)(CC1)C2 [Type I crystal of Compound (1) with phosphoric acid] [N-(4-(4-amino-6-ethynyl-5-(quinolin-3-yl)-7H-pyrrolo[2,3-d]pyrimidin-7-yl)bicyclo[2.2.1]heptan-1-yl)-5-methylpyrazine-2-carboxamide] | 99.50 | −0.40% | 99.90 | highly hygroscopic |  |  |  |  |  |  | unstable crystals with decreases in purity |  |  | 
C#Cc1c(-c2cnc3ccccc3c2)c2c(N)ncnc2n1C12CCC(NC(=O)c3cnc(C)cn3)(CC1)C2 [Type II crystal of Compound (1) in free form] [N-(4-(4-amino-6-ethynyl-5-(quinolin-3-yl)-7H-pyrrolo[2,3-d]pyrimidin-7-yl)bicyclo[2.2.1]heptan-1-yl)-5-methylpyrazine-2-carboxamide] |  |  |  | hardly hygroscopic | 99.78 | −0.02 | 99.80 | 0.16 |  |  | extremely stable crystals with almost no increase in the related substances |  |  | 
C#Cc1c(-c2cnc3ccccc3c2)c2c(N)ncnc2n1C12CCC(NC(=O)c3cnc(C)cn3)(CC1)C2 [Type III crystal in free form, N-(4-(4-amino-6-ethynyl-5-(quinolin-3-yl)-7H-pyrrolo[2,3-d]pyrimidin-7-yl)bicyclo[2.2.1]heptan-1-yl)-5-methylpyrazine-2-carboxamide] | 99.60 | +0.02% | 99.58 | low hygroscopicity as long as RH is less than 65% |  |  |  |  | reversible |  |  | extremely stable crystals with almost no increase in the related substances | hygroscopicity that sharply increased at above 65% RH | 

The next lines start with results.

Chemical purity after 4 weeks of storage at 80° C. [1] [%] | Change (chemical purity) [1] | Chemical purity before storage [1] [%] | Hygroscopicity (result in words) [2] | Chemical purity after 4 weeks of storage at 80° C. [1, 3] [%] | Change (chemical purity) [1, 3] [%] | Chemical purity before storage [1, 3] [%] | Weight increase under 95% relative humidity ([2]; 95% RH) [%] | Reversibility of water adsorption when the humidity was decreased [2, 4] | Reversibility of water adsorption when the humidity was decreased [2] | Compound | Solid stability (result in words) [1] | Solid stability (result in words) [1, 4] | Hygroscopicity (result in words) [2, 4] | Solid stability (result in words) ([1]; listed as type VII crystal of Compound (1) in free form)
93.49 | −6.42% | 99.91 | highly hygroscopic |  |  |  |  |  |  | C#Cc1c(-c2cnc3ccccc3c2)c2c(N)ncnc2n1C12CCC(NC(=O)c3cnc(C)cn3)(CC1)C2 [Type IV crystal of Compound (1) with citric acid] [N-(4-(4-amino-6-ethynyl-5-(quinolin-3-yl)-7H-pyrrolo[2,3-d]pyrimidin-7-yl)bicyclo[2.2.1]heptan-1-yl)-5-methylpyrazine-2-carboxamide] | unstable crystals with decreases in purity |  |  | 
99.63 |  | 99.63 | highly hygroscopic |  |  |  |  |  | irreversible | C#Cc1c(-c2cnc3ccccc3c2)c2c(N)ncnc2n1C12CCC(NC(=O)c3cnc(C)cn3)(CC1)C2 [Type VII crystal in free form, N-(4-(4-amino-6-ethynyl-5-(quinolin-3-yl)-7H-pyrrolo[2,3-d]pyrimidin-7-yl)bicyclo[2.2.1]heptan-1-yl)-5-methylpyrazine-2-carboxamide] |  |  |  | extremely stable crystals with almost no increase in the related substances
99.43 | −0.19% | 99.62 | highly hygroscopic |  |  |  |  |  | irreversible | C#Cc1c(-c2cnc3ccccc3c2)c2c(N)ncnc2n1C12CCC(NC(=O)c3cnc(C)cn3)(CC1)C2 [Type VIII crystal in free form, N-(4-(4-amino-6-ethynyl-5-(quinolin-3-yl)-7H-pyrrolo[2,3-d]pyrimidin-7-yl)bicyclo[2.2.1]heptan-1-yl)-5-methylpyrazine-2-carboxamide] |  |  |  | 
